Consider 42 compounds from patent US8754079B2, “Cycloalkyl containing thienopyrimidines for pharmaceutical compositions” (Boehringer Ingelheim International GmbH, priority 2010, dated 2014).

Molecules are shown by their SMILES. Counter-ions that a name gives are not always drawn.

For this test, the target named is T1, MNK2 (Homo sapiens, UniProt Q9HBH9).
T1 construct: the open reading frames of human Mnk1 and Mnk2a were amplified from cDNA; made in house; host or cells: E. coli BL21
In words: Mnk2a in vitro kinase assay (indirect fluorescence polarization). Type of test: biochemical. The settings on record: pre-activated GST-Mnk2a 2.5 nM, 20 μM ATP, 30 μM substrate peptide. The method, boiled down: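 Human GST-Mnk2a was expressed in E. coli and activated in vitro with 150 nM pre-activated ERK2 and 50 μM ATP in HEPES pH 7.4/MgCl2 buffer (45 min, 30 °C). Activity on an eIF4E Ser209-derived 12mer peptide was read by competitive fluorescence polarization with a phospho-specific antibody.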
In general terms: In fluorescence polarisation assays a small probe gives low polarisation when free and higher when bound to something large.

T1 sequence (Q9HBH9 whole entry): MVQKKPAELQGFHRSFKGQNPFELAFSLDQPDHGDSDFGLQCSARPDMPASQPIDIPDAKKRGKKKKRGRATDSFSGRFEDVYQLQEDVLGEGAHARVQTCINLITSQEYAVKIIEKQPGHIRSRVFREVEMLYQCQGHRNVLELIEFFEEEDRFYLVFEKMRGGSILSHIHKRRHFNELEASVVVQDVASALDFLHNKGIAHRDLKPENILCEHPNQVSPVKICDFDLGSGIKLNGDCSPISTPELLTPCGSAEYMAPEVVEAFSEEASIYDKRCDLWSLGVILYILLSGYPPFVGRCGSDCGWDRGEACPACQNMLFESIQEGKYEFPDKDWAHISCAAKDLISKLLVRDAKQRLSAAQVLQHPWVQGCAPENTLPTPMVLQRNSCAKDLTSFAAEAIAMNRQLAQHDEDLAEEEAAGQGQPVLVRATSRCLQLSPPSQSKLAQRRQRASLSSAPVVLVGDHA

For orientation: IC50 means the midpoint of a concentration-inhibition curve. A high value points to weaker potency. In the case of `Cc1c(C(=O)NCCCN(C)C)sc2ncnc(Nc3ccc(F)cc3OC3CCC(O)C3)c12` (stereo not drawn) [Example 226, N-(3-(dimethylamino)propyl)-4-(4-fluoro-2-(3-hydroxycyclopentyloxy)phenylamino)-5-methylthieno[2,3-d]pyrimidine-6-carboxamide], the IC50 was found to be 10 nM. The value for `Cc1c(C(=O)NCCO)sc2ncnc(Nc3ccc(F)cc3OC3CCC(O)C3)c12` (stereo not drawn) [Example 227, 4-(4-Fluoro-2-(3-hydroxycyclopentyloxy)phenylamino)-N-(2-hydroxyethyl)-5-methylthieno[2,3-d]pyrimidine-6-carboxamide] was 12 nM. Under `Cc1c(C(N)=O)sc2ncnc(Nc3ccc(F)cc3O[C@H]3CC[C@H](NC(=O)OC(C)(C)C)C3)c12` [Example 228, {(1S,3S)-3-[2-(6-Carbamoyl-5-methyl-thieno[2,3-d]pyrimidin-4-ylamino)-5-fluoro-phenoxy]-cyclopentyl}-carbamic acid tert-butyl ester] stands 1140 nM; under `Cc1c(C(N)=O)sc2ncnc(Nc3ccc(F)cc3O[C@H]3CC[C@H](N)C3)c12` [Example 229, 4-[2-((1S,3S)-3-Amino-cyclopentyloxy)-4-fluoro-phenylamino]-5-methyl-thieno[2,3-d]pyrimidine-6-carboxylic acid amide trifluoroacetate], 7 nM.

In the case of `CC(=O)N[C@H]1CC[C@H](Oc2cc(F)ccc2Nc2ncnc3sc(C(N)=O)c(C)c23)C1` [Example 230, 4-[2-((1S,3S)-3-Acetylamino-cyclopentyloxy)-4-fluoro-phenylamino]-5-methyl-thieno[2,3-d]pyrimidine-6-carboxylic acid amide], half-maximal inhibition (IC50) required 4 nM. The value for `CC(=O)N[C@H]1CC[C@H](Oc2cc(F)ccc2Nc2ncnc3sc(C(=O)NCCO)c(C)c23)C1` [Example 231, 4-[2-((1S,3S)-3-Acetylamino-cyclopentyloxy)-4-fluoro-phenylamino]-5-methyl-thieno[2,3-d]pyrimidine-6-carboxylic acid (2-hydroxy-ethyl)-amide] was 14 nM; that for `CC(=O)N[C@H]1CC[C@H](Oc2cc(F)ccc2Nc2ncnc3sc(C(=O)N[C@@H]4C[C@H]4NC(=O)OC(C)(C)C)c(C)c23)C1` [Example 232] was 6 nM; that for `CC(=O)N[C@H]1CC[C@H](Oc2cc(F)ccc2Nc2ncnc3sc(C(=O)NCC#CCN(C)C)c(C)c23)C1` [Example 233] was 19 nM.

With `CC(=O)N[C@H]1CC[C@H](Oc2cc(F)ccc2Nc2ncnc3sc(C(=O)NC4CCN(C)CC4)c(C)c23)C1` [Example 234], the IC50 was determined as 32 nM. The value for `CNC(=O)c1sc2ncnc(Nc3ccc(F)cc3O[C@H]3CC[C@H](NC(C)=O)C3)c2c1C` [Example 235] was 6 nM. The value for `CONC(=O)c1sc2ncnc(Nc3ccc(F)cc3O[C@H]3CC[C@H](NC(C)=O)C3)c2c1C` [Example 236] was 16 nM; that for `CC(=O)N[C@H]1CC[C@H](Oc2cc(F)ccc2Nc2ncnc3sc(C(=O)NCCCN(C)C)c(C)c23)C1` [Example 237] was 25 nM. In turn, `CC(=O)N[C@H]1CC[C@H](Oc2cc(F)ccc2Nc2ncnc3sc(C(=O)N[C@@H]4C[C@H]4N)c(C)c23)C1` [Example 238] returned an IC50 of 31 nM. Under `CC(=O)N[C@H]1CC[C@H](Oc2cc(F)ccc2Nc2ncnc3sc(C(=O)NCCCN4CCCC4)c(C)c23)C1` [Example 239] stands 15 nM; under `CC(=O)N(C)[C@H]1CC[C@H](Oc2cc(F)ccc2Nc2ncnc3sc(C(N)=O)c(C)c23)C1` [Example 240, 4-{2-[(1S,3S)-3-(Acetyl-methyl-amino)-cyclopentyloxy]-4-fluoro-phenylamino}-5-methyl-thieno[2,3-d]pyrimidine-6-carboxylic acid amide], 13 nM; under `CC(=O)N[C@H]1C[C@H](Oc2cc(F)ccc2Nc2ncnc3sc(C(=O)NCC#N)c(C)c23)C1` [Example 241, 4-[2-(trans-3-Acetylamino-cyclobutoxy)-4-fluoro-phenylamino]-5-methyl-thieno[2,3-d]pyrimidine-6-carboxylic acid cyanomethyl-amide], 49 nM.

Turning to `Cc1c(C(N)=O)sc2ncnc(Nc3ccc(F)cc3OC3CCC3)c12` [Example 243, 4-(2-Cyclobutoxy-4-fluoro-phenylamino)-5-methyl-thieno[2,3-d]pyrimidine-6-carboxylic acid amide], the IC50 is 9 nM. The value for `Cc1c(C(N)=O)sc2ncnc(Nc3ccc(F)cc3OC3CCCC3)c12` [Example 244, 4-(2-Cyclopentoxy-4-fluoro-phenylamino)-5-methyl-thieno[2,3-d]pyrimidine-6-carboxylic acid amide] was 2 nM; that for `CC(=O)N[C@H]1C[C@H](Oc2cc(F)ccc2Nc2ncnc3sc(C(=O)NCC#CCN(C)C)c(C)c23)C1` [Example 245, 4-[2-(trans-3-Acetylamino-cyclobutoxy)-4-fluoro-phenylamino]-5-methyl-thieno[2,3-d]pyrimidine-6-carboxylic acid (4-dimethylamino-but-2-ynyl)-amide] was 39 nM; that for `CC(=O)N[C@H]1C[C@H](Oc2cc(F)ccc2Nc2ncnc3sc(C(=O)N[C@H]4C[C@@H]4N)c(C)c23)C1` [Example 246, 4-[2-(trans-3-Acetylamino-cyclobutoxy)-4-fluoro-phenylamino]-5-methyl-thieno[2,3-d]pyrimidine-6-carboxylic acid (2-amino-cyclopropyl)-amide] was 65 nM. Under `COC(=O)c1sc2ncnc(Nc3ccc(F)cc3O[C@@H]3CCCC[C@H]3OC)c2c1C` [Example 247, 4-[4-Fluoro-2-((1R,2R)-2-methoxy-cyclohexyloxy)-phenylamino]-5-methyl-thieno[2,3-d]pyrimidine-6-carboxylic acid methyl ester] stands 139 nM; under `CO[C@@H]1CCCC[C@H]1Oc1cc(F)ccc1Nc1ncnc2sc(C(=O)O)c(C)c12` [Example 248, 4-[4-Fluoro-2-((1R,2R)-2-methoxy-cyclohexyloxy)-phenylamino]-5-methyl-thieno[2,3-d]pyrimidine-6-carboxylic acid], 10 nM. As for `CO[C@@H]1CCCC[C@H]1Oc1cc(F)ccc1Nc1ncnc2sc(C(N)=O)c(C)c12` [Example 249, 4-[4-Fluoro-2-((1R,2R)-2-methoxy-cyclohexyloxy)-phenylamino]-5-methyl-thieno[2,3-d]pyrimidine-6-carboxylic acid amide], half-maximal inhibition (IC50) was put at 6 nM. The value for `COC1CCCCC1Oc1cc(F)ccc1Nc1ncnc2sc(C(=O)NC3CCCC3O)c(C)c12` (stereo not drawn) [Example 250] was 19 nM; that for `CO[C@@H]1CCCC[C@H]1Oc1cc(F)ccc1Nc1ncnc2sc(C(=O)N[C@@H]3CCC[C@H]3O)c(C)c12` [Example 251] was 20 nM; that for `CO[C@@H]1CCCC[C@H]1Oc1cc(F)ccc1Nc1ncnc2sc(C(=O)NCCSC)c(C)c12` [Example 252] was 18 nM. Under `CO[C@@H]1CCCC[C@H]1Oc1cc(F)ccc1Nc1ncnc2sc(C(=O)NCCCN3CCCC3)c(C)c12` [Example 254] stands 11 nM; under `CO[C@@H]1CCCC[C@H]1Oc1cc(F)ccc1Nc1ncnc2sc(C(=O)NCC[S+](C)[O-])c(C)c12` (stereo partly drawn) [Example 255], 14 nM.

`Cc1c(C(=O)NCCCN2CCCC2)sc2ncnc(Nc3ccc(F)cc3OC3CCCCC3O)c12` (stereo not drawn) [Example 263] yielded an IC50 of 175 nM.

Take `Cc1c(C(=O)NCCO)sc2ncnc(Nc3cccnc3O[C@H]3CC[C@H](O)CC3)c12` [Example 266, 4-[2-(trans-4-hydroxy-cyclohexyloxy)-pyridine-3-ylamino]-5-methyl-thieno[2,3-d]pyrimidine-6-carboxylic acid (2-hydroxy-ethyl)-amide]: the IC50 amounted to 15 nM. Take `Cc1c(C(=O)NCC#CCN(C)C)sc2ncnc(Nc3cccnc3O[C@H]3CC[C@H](O)CC3)c12` [Example 267]: half-maximal inhibition (IC50) required 10 nM. Under `Cc1c(C(=O)NCCCN2CCCC2)sc2ncnc(Nc3cccnc3O[C@H]3CC[C@H](O)CC3)c12` [Example 268] stands 14 nM; under `Cc1c(C(=O)NC2CCN(C)CC2)sc2ncnc(Nc3cccnc3O[C@H]3CC[C@H](O)CC3)c12` [Example 269], 24 nM; under `Cc1c(C(=O)NCCCN2CCC2)sc2ncnc(Nc3cccnc3O[C@H]3CC[C@H](O)CC3)c12` [Example 270], 58 nM.

`Cc1c(C(=O)NCCCN2CCCC2=O)sc2ncnc(Nc3ccc(F)cc3O[C@H]3CC[C@H](O)CC3)c12` [Example 271, 4-[4-Fluoro-2-(trans-4-hydroxy-cyclohexyloxy)-phenylamino]-5-methyl-thieno[2,3-d]pyrimidine-6-carboxylic acid [3-(2-oxo-pyrrolidin-1-yl)-propyl]amide] came in with an IC50 of 12 nM. This IC50 lies about 4.8-fold lower than the previous one.

With `CO[C@H]1CC[C@H](Oc2cc(F)ccc2Nc2ncnc3sc(C(=O)NCCCN4CCCCC4)c(C)c23)CC1` [Example 275], the half-maximal inhibitory concentration (IC50) amounted to 10 nM. The value for `CCN(CC)CCCNC(=O)c1sc2ncnc(Nc3ccc(F)cc3O[C@H]3CC[C@H](OC)CC3)c2c1C` [Example 276] was 12 nM. The value for `CO[C@H]1CC[C@H](Oc2cc(F)ccc2Nc2ncnc3sc(C(=O)NCC(O)CN(C)C)c(C)c23)CC1` (stereo partly drawn) [Example 277] was 13 nM. The value for `CO[C@H]1CC[C@H](Oc2cc(F)ccc2Nc2ncnc3sc(C(=O)NCCCN(CCO)CCO)c(C)c23)CC1` [Example 278] was 7 nM; that for `CO[C@H]1CC[C@H](Oc2cc(F)ccc2Nc2ncnc3sc(C(=O)NCCCN4CCCC4=O)c(C)c23)CC1` [Example 279] was 11 nM; that for `CO[C@H]1CC[C@H](Oc2cc(F)ccc2Nc2ncnc3sc(C(=O)NCCCN4C(=O)CCC4=O)c(C)c23)CC1` [Example 280] was 9 nM. In turn, `COC(=O)c1sc2ncnc(Nc3cccnc3O[C@H]3CC[C@H](N)CC3)c2c1C` [Example 281, 4-[2-(4-Amino-cyclohexyloxy)-pyridin-3-ylamino]-5-methyl-thieno[2,3-d]pyrimidine-6-carboxylic acid methyl ester] registered a half-maximal inhibitory concentration (IC50) of 66 nM.
